In PMC7812938, “Dehydrobufotenin extracted from the Amazonian toad Rhinella marina (Anura: Bufonidae) as a prototype molecule for the development of antiplasmodial drugs” (The Journal of Venomous Animals and Toxins Including …, 2021):
Like-named read-outs stand apart in the source and are kept apart here.

Legend:
[1] = system: P. falciparum W2 strain (chloroquine resistant); experiment: In vitro antiplasmodial activity; type: cell-based, Plasmodium falciparum; conditions: read-out: IC50 ± SD (drug concentration that reduced parasite viability in 50%)
Text: P. falciparum continuous culture was maintained as previously described with minor modifications. […] The parasites at early stages were synchronized at ring stage by sorbitol treatment. Initial parasitemia was adjusted to 0.5% with 2% hematocrit in all experiments.
In vitro antiplasmodial activity of the bufadienolides (compounds dehydrobufotenin, marinobufotoxin, marinobufagin and bufalin) was done in 96 well plates. The growth inhibition of intraerythrocytic forms and parasite morphology in culture was assessed by microscopic observation of the Giemsa-stained thin blood films. Ring stage parasites (0.5% parasitemia and 2% hematocrit) were added to each well of 96-well microculture plates. The compounds (dehydrobufotenin, marinobufotoxin, marinobufagin and bufalin) were dissolved in DMSO and diluted to concentrations ranging from 0.78 to 100 μg/mL using complete medium and stored a 4 °C. After incubation at 37 °C for 48 hours, P. falciparum growth inhibition was assessed in Giemsa-stained smears by observing 5,000 erythrocytes per 1 thin blood film in triplicate. The culture medium was replaced with fresh medium with or without test samples/control drugs. […] All experiments were performed in triplicate.
(§1) The coefficients of regression of these curves were calculated using the method of least squares. The LD50 were determined based on the equation of the curve obtained by plotting the % of cellular death versus the concentration of compound (GraphPad Prism Software, version 5.0 for Windows, San Diego, California, USA). The average IC50 and LD50 were compared using ANOVA. Statistical significance was defined at the 5% level (P<0.05).

[2] = system: WI-26VA4 human pulmonary fibroblast cells; experiment: In vitro cytotoxicity, MTT assay; type: cell-based; conditions: for SI (selectivity index): SI = LD50 Cell / IC50 P. falciparum, WI-26VA4 vs W2; for LD50 ± SD (lethal drug concentration that reduced WI-26VA4 cells viability in 50%): WI-26VA4 human pulmonary fibroblast cells, MTT, 24 hours, mean and SD of triplicate experiments
Procedure: The cells were washed with culture medium, trypsinized, distributed in a flat-bottomed 96-well plate (5×10^3 cells/well), and incubated for 18 hours at 37 °C for cell adherence. The compounds (20 μL) were diluted in different concentrations ranging from 0.2 - 200 μg/mL and incubated with the cells for 24 hours in a 5% CO2 atmosphere at 37 °C.
A 3-(4,5-dimethylthiazol-2-yl)-2,5-diphenyltetrazolium bromide (MTT) solution (5 mg/mL; 20 μL/well) was added to evaluate mitochondrial viability; after a further 3 hours incubation, the supernatants were carefully removed, 100 μL of DMSO was added to each well, and the reactions were mixed to solubilize the formazan crystals. […] The cell viability was expressed as a percentage of the control absorbance in the untreated cells after subtracting the appropriate background.
A selectivity index (SI) corresponding to the ratio between the cytotoxic and antiplasmodial activities of each compound tested. The values greater than 10 were considered indicative of lack of toxicity, whereas the substances with values below 10 were considered toxic. The SI index was calculated as follow:
SI=LD50 Cell/IC50 P.falciparum
as §1

[3] = Plasmodium falciparum, W2, 48 h

Structure (SMILES)	IC50 [1, 3] [µM]	SI (selectivity index) [2]	SI (selectivity index) ([2]; listed as dehydrobufotenin)	LD50 ± SD (lethal drug concentration that reduced WI-26VA4 cells viability in 50%) [2] [µM]	LD50 ± SD (lethal drug concentration that reduced WI-26VA4 cells viability in 50%) ([2]; listed as dehydrobufotenin) [µM]	LD50 ± SD (lethal drug concentration that reduced WI-26VA4 cells viability in 50%) ([2]; listed as marinobufagin) [µM]	LD50 ± SD (lethal drug concentration that reduced WI-26VA4 cells viability in 50%) ([2]; listed as marinobufotoxin) [µM]	IC50 ([1]; P. falciparum W2 (chloroquine-resistant), 48 hours, Giemsa-stained smears, mean and SD of triplicate experiments) [µM]	LD50 ± SD (lethal drug concentration that reduced WI-26VA4 cells viability in 50%) ([2]; listed as bufalin) [µM]
C[N+]1(C)CCc2c[nH]c3ccc(O)c1c23 [Dehydrobufotenine, Dehydrobufotenin]	19.1 ± 0.2	12.33	> 10	235.76 ± 4.03	235.76	–	–	–	–
CC12CCC(O)CC1(O)CCC1C2CCC2(C)C(c3ccc(=O)oc3)CC3OC312 (stereo not drawn) [Marinobufagin]	3.89 ± 0.42	0.78	–	3.04 ± 0.25	–	3.04	–	–	–
CC12CCC(OC(=O)CCCCCCC(=O)NC(CCCNC(=N)N)C(=O)O)CC1(O)CCC1C2CCC2(C)C(c3ccc(=O)oc3)CC3OC312 (stereo not drawn) [Marinobufotoxin, 3-(N-suberoylargininyl) marinobufagin]	5.31 ± 0.25	1.67	–	8.89 ± 2.66	–	–	8.89	–	–
C[C@]12CC[C@H](O)C[C@H]1CC[C@@H]1[C@@H]2CC[C@]2(C)[C@@H](c3ccc(=O)oc3)CC[C@]12O [Bufalin]	–	7.52	–	25.9 ± 7.04	–	–	–	3.44 ± 0.43	25.9
CCN(CC)CCCC(C)Nc1ccnc2cc(Cl)ccc12 (stereo not drawn) [Chloroquine (CQ), Chloroquine, reference compound]	1.04 ± 0.21	–	–	–	–	–	–	–	–
